Results taken from patent US8257931B2 (President and Fellows of Harvard College, priority 2005, dated 2012).
Like-named read-outs stand apart in the source and are kept apart here. One block for each compound: values may come before it.

Key:
A549 lung cancer cells = assay: A549 proliferation, sulforhodamine B (SRB) assay; type: cell-based, human; conditions: sulforhodamine B assay, triplicate
Protocol: FIG. 28 is a graph showing the results of a cell proliferation assay. A549 cells, which are human lung cancer cells, are grown in plates for five days in medium containing 5% FCS and compound. The number of cells is quantified by staining with sulforhodamine B.

eIF4E/eIF4G interaction = molecular target: T1, eIF4E/eIF4G interaction (Mus musculus, UniProt P63073); assay: Fluorescence polarization assay: binding of fluorescein-labeled eIF4G peptide to eIF4E; set-up: species or system murine; conditions: triplicate, SD<±10%; for IC50: read-out: IC50 (μM) (4E/4G FP)
T1 construct: made in house; host or cells: E. coli
T1 sequence (P63073 whole entry): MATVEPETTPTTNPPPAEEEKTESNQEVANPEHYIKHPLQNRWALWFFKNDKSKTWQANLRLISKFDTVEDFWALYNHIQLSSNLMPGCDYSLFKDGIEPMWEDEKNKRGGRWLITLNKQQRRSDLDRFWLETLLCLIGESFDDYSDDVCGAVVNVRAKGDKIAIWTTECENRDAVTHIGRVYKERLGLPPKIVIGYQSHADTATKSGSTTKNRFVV
Protocol: We adapted this assay to a microwell plate format and used it to screen the 16,000 compound Chembridge DiverSet E library. […] For screening and subsequent peptide binding assays measurements of fluorescence polarization were made using an LJL Analyst plate reader. For the screening assay a solution containing approximately 5 μM meIF4E, 60 nM labeled peptide, 0.05% bovine γ-globulin, and 2 mM DTT in a buffer composed of 50 mM sodium phosphate and 50 mM potassium chloride at pH 6.5 was used. […] The curve fitting for estimation of binding constants used equations derived by Roehrl et al.^22 Measurements of fluorescence polarization and anisotropy were made in black 384-well plates (Corning) using an Analyst plate reader (LJL Biosystems) Compounds were transferred to plates during the screening using a custom-built Seiko pin transfer robot at the Institute for Chemistry and Cell Biology (ICCB) at Harvard Medical School.
A fluorescence polarization (FP) assay was developed to measure binding of a peptide containing the conserved eIF4E-binding motif to eIF4E.
The assay was adapted to a microwell plate format and used to screen a number of libraries comprised of small molecule libraries for potential eIF4E/eIF4G interaction inhibitors.

[1] = Homo sapiens, A549, Table 1 of b280
[2] = Homo sapiens, A549, Table 1 of b347

GI50 (A549 lung cancer cells; Table 1): 10 µM
GI50 (A549 lung cancer cells; Table 1, listed as E-4h): 10 µM
Compound: O=C(O)/C(=N/Nc1nc(-c2ccccc2)cs1)c1ccccc1 [E-6, Phenyl-[(4-phenyl-thiazol-2-yl)-hydrazono]-acetic acid]

IC50 (eIF4E/eIF4G interaction; Table 1 of b280): > 600 µM
IC50 (eIF4E/eIF4G interaction; Table 1 of b347): > 600 µM
GI50 (A549 lung cancer cells; Table 1): > 20 µM
GI50 (A549 lung cancer cells; Table 1, listed as Z-4r): > 20 µM
Compound: O=C(O)/C(Cc1ccccc1[N+](=O)[O-])=N/Nc1nc(-c2ccccc2)cs1 [Z-2]

IC50 (eIF4E/eIF4G interaction; Table 1 of b280): > 600 µM
IC50 (eIF4E/eIF4G interaction; Table 1 of b347): > 600 µM
GI50 (A549 lung cancer cells; [1]): > 10 µM
GI50 (A549 lung cancer cells; [2]): > 10 µM
Compound: O=C(O)/C(Cc1ccccc1)=N\Nc1nnc(-c2ccccc2)s1 [Z-16, 3-Phenyl-2-[(5-phenyl-[1,3,4]thiadiazol-2-yl)-hydrazono]-propionic acid]

IC50 (eIF4E/eIF4G interaction; Table 1 of b280): > 600 µM
IC50 (eIF4E/eIF4G interaction; Table 1 of b347): > 600 µM
GI50 (A549 lung cancer cells; [1]): 11 µM
GI50 (A549 lung cancer cells; [2]): 11 µM
Compound: COC(=O)/C(Cc1ccccc1)=N/Nc1nc(-c2ccccc2)cs1 [Z-13, 3-Phenyl-2-[(4-phenyl-thiazol-2-yl)-hydrazono]-propionic acid methyl ester]

IC50 (μM) (4E/4G FP) (eIF4E/eIF4G interaction; Table 1 of b347): insoluble
Compound: O=C(O)C(Cc1ccccc1)NCc1nc(-c2ccccc2)cs1 (centres unmarked) [compound 20, 3-Phenyl-2-[(4-phenyl-thiazol-2-ylmethyl)-amino]-propionic acid]

IC50 (eIF4E/eIF4G interaction; Table 1 of b347): > 600 µM
Compound: O=C(O)C(CNc1nc(-c2ccccc2)cs1)Cc1ccccc1 (centres unmarked) [compound 22, 2-Benzyl-3-(4-phenyl-thiazol-2-ylamino)-propionic acid]

GI50 (A549 lung cancer cells; Table 1): 7 µM
GI50 (A549 lung cancer cells; Table 1, listed as E-4f): 7 µM
Compound: COC(=O)/C(Cc1ccccc1)=N/Nc1nc(-c2ccccc2)cs1 [E-13, 3-Phenyl-2-[(4-phenyl-thiazol-2-yl)-hydrazono]-propionic acid methyl ester]

IC50 (eIF4E/eIF4G interaction; Table 1 of b280): > 600 µM
Compound: O=C(O)/C(=C\c1ccccc1)NCc1nc(-c2ccccc2)cs1

GI50 (A549 lung cancer cells; Table 1): 3 µM
GI50 (A549 lung cancer cells; Table 1, listed as E-4a): 3 µM
Compound: O=C(O)/C(Cc1ccccc1[N+](=O)[O-])=N/Nc1nc(-c2ccc(Cl)c(Cl)c2)cs1 [E-1, 2-{[4-(3,4-Dichloro-phenyl)-thiazol-2-yl]-hydrazono}-3-(2-nitro-phenyl)-propionic acid]

IC50 (eIF4E/eIF4G interaction; Table 1 of b347): > 600 µM
Compound: O=C(NC(Cc1ccccc1)C(=O)O)c1nc(-c2ccccc2)cs1 (centres unmarked) [compound 18, 3-Phenyl-2-[(4-phenyl-thiazole-2-carbonyl)-amino]-propionic acid]

IC50 (eIF4E/eIF4G interaction; Table 1 of b347): > 600 µM
Compound: NC(=O)/C(Cc1ccccc1)=N/Nc1nc(-c2ccccc2)cs1 [E-21, 3-Phenyl-2-[(4-phenyl-thiazol-2-yl)-hydrazono]-propionamide]

IC50 (eIF4E/eIF4G interaction; Table 1 of b280): > 125 µM
Compound: O=C(O)/C(Cc1ccccc1)=N/Nc1nc(-c2ccc(N3CCOCC3)cc2)cs1

IC50 (eIF4E/eIF4G interaction; Table 1 of b280): 400 µM
Compound: O=C(O)/C(Cc1ccccc1)=N/Nc1nc(-c2ccc3c(c2)OCCCO3)cs1

IC50 (eIF4E/eIF4G interaction; Table 1 of b280): 100 µM
Compound: O=C(O)C(Cc1ccccc1)=NNc1nc(-c2ccc(C3CCCCC3)cc2)cs1 (mixture of isomers)

IC50 (eIF4E/eIF4G interaction; Table 1 of b280): > 600 µM
Compound: O=C(O)C(Cc1ccccc1)C(=O)Nc1nc(-c2ccccc2)cs1 (centres unmarked) [drawing 70]

IC50 (eIF4E/eIF4G interaction; Table 1 of b280): > 600 µM
Compound: O=C(NC(Cc1ccccc1)C(=O)O)c1nc(-c2ccccc2)cs1 (centres unmarked) [drawing 69]

GI50 (A549 lung cancer cells; [1]): 4 µM
Compound: O=C(O)/C(Cc1ccccc1[N+](=O)[O-])=N/Nc1nc(-c2ccc(-c3ccccc3)cc2)cs1

IC50 (eIF4E/eIF4G interaction; Table 1 of b280): 170 µM
Compound: O=C(O)C(Cc1ccccc1)=NNc1nc(-c2ccc3c(c2)OCCO3)cs1 (mixture of isomers)

GI50 (A549 lung cancer cells; Table 1): 4 µM
GI50 (A549 lung cancer cells; Table 1, listed as E-4p): 4 µM
Compound: O=C(O)/C(Cc1ccccc1)=N/Nc1nc2ccccc2s1 [E-11, 2-(Benzothiazol-2-yl-hydrazono)-3-phenyl-propionic acid]

GI50 (A549 lung cancer cells; [1]): 6 µM
GI50 (A549 lung cancer cells; [2]): 5 ± 1 µM
Compound: O=C(O)/C(Cc1ccccc1[N+](=O)[O-])=N/Nc1nc(-c2ccc(Cl)c(Cl)c2)cs1 [Z-1, 2-{[4-(3,4-Dichloro-phenyl)-thiazol-2-yl]-hydrazono}-3-(2-nitro-phenyl)-propionic acid]

GI50 (A549 lung cancer cells; Table 1): 7 µM
GI50 (A549 lung cancer cells; Table 1, listed as E-4r): 7 µM
Compound: O=C(O)/C(Cc1ccccc1[N+](=O)[O-])=N/Nc1nc(-c2ccccc2)cs1 [E-2]

IC50 (μM) (4E/4G FP) (eIF4E/eIF4G interaction; Table 1 of b280): insoluble
Compound: O=C(O)C(Cc1ccccc1)NCc1nc(-c2ccccc2)cs1 (centres unmarked) [drawing 71]

IC50 (eIF4E/eIF4G interaction; Table 1 of b347): > 600 µM
Compound: O=C(O)C(Cc1ccccc1)C(=O)Nc1nc(-c2ccccc2)cs1 (centres unmarked) [compound 19, 2-Benzyl-N-(4-phenyl-thiazol-2-yl)-malonamic acid]
